Source: patent publication US11964988B2, “Fused heterocyclic compounds as RET kinase inhibitors” (ARRAY BIOPHARMA INC., priority 2018, dated 2024)
Where a chain is given by its changes, count along the chain named.

Key:
G810S mutant RET kinase = G810S mutant RET kinase (Homo sapiens, UniProt P07949, G810S); experiment: biochemical;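 also: HTRF KinEASE-TK kinase assay with recombinant enzyme, 1 h at 22 °C, dual-wavelength ratiometric read-out, percent of control (DMSO-only = 100, pre-quenched reaction = 0)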
Chain of G810S mutant RET kinase (P07949 29-1114 G810S): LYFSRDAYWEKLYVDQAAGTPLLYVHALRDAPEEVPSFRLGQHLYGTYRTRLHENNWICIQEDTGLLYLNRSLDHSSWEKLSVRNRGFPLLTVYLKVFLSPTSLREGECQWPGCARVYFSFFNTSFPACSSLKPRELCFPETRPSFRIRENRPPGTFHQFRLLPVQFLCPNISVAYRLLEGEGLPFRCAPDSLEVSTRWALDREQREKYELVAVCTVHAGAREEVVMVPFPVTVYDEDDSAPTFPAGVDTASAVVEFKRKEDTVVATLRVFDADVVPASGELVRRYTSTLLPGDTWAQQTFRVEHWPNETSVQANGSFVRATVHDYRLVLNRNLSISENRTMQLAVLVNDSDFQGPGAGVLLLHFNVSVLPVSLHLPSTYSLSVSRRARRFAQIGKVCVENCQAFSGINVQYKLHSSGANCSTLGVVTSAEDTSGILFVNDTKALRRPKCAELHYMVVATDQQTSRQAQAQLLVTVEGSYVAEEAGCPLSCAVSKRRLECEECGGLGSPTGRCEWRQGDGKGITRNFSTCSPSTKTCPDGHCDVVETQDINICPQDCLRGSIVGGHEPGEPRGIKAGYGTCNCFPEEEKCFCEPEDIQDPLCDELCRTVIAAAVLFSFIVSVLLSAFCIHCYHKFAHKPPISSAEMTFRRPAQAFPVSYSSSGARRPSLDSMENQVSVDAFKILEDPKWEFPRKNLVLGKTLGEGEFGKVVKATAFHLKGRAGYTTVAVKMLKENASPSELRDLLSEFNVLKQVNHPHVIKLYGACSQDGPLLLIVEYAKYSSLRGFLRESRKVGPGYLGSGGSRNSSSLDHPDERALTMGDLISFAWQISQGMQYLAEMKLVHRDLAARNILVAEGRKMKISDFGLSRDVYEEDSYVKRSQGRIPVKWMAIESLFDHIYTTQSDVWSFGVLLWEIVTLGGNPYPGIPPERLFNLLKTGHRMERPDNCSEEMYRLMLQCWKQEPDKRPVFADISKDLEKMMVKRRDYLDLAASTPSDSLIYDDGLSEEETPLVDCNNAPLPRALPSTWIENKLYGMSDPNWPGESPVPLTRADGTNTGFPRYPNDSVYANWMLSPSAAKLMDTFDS

[1] = biological target: T1, HEK-293 cells expressing a G810S mutant RET Kif5b-RET fusion protein (Homo sapiens, UniProt P07949, G810S); experiment: RET G810S Mutant Cell Assay (phospho-RET Tyr1062); type: cell-based; conditions: HEK-293 Kif5b-RET G810S, 1 hour incubation, phospho-RET normalized to GAPDH
T1 construct: KIF5B (N-terminal portion incl. coiled-coil); expressed in transfected cells; host or cells: HEK-293
T1 sequence (P07949 713-1063 G810S limits assumed): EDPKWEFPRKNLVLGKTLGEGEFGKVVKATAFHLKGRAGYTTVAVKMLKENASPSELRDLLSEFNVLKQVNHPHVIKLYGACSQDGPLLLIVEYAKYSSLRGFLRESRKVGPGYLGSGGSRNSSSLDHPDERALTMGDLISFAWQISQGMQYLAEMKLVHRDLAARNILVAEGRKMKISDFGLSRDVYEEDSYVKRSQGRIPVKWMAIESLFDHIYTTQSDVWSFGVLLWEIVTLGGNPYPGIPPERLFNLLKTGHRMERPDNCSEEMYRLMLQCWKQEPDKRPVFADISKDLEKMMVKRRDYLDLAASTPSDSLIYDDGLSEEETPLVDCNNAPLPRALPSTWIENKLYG
Procedure: (§1) The cellular potency of compounds inhibiting RET kinase were determined in HEK-293 cells expressing a G810R or G810S mutant RET Kif5b-RET fusion protein. Briefly, HEK-293 cells expressing a G810R or G810S mutant RET Kif5b-RET fusion protein were plated at 50K cells/well in 96 well poly-D-Lysine coated plates the day prior to the assay. The cells were incubated for 1 hour with test compound in DMEM (Dulbecco's Modified Eagle Medium) at a final DMSO concentration of 0.5%. […] After 1 hour the media was removed, the cells were fixed with 3.8% formaldehyde for 20 min, washed with PBS, and permeabilized for 10 min with 100% methanol. The plates were then washed with PBS-0.05% Tween20, and blocked with LI-COR Blocking solution (LI-COR Catalog No. 927-40000) for 1 hour. Plates were washed with PBS-0.05% Tween20, then incubated with anti-phospho-RET (Tyr1062) (Santa Cruz Catalog No. sc-20252-R) antibody and anti-GAPDH (Millipore Catalog No. MAB374) antibody for 2 hours. The plates were washed with PBS-0.05% Tween20, and incubated with anti-rabbit 680 (Molecular Probes Catalog No. A21109) and anti-mouse 800 (LI-COR Catalog No. 926-32210) secondary antibodies for 1 hour. All antibodies were diluted in LI-COR Block containing 0.05% Tween. The plates were washed with PBS-0.05% Tween20,100 μL PBS was added to each well, and the plates were read on a LI-COR Aerius fluorescent plate reader. The phospho-RET signal was normalized to the GAPDH signal. […] The POC values are fit to a 4 parameter logistic curve. The IC50 value is the point where the curve crosses 50 POC.

[2] = biological target: T2, HEK-293 cells expressing a Kif5b-RET fusion protein (Homo sapiens, UniProt P07949); experiment: RET Cell Assay (phospho-RET Tyr1062); type: cell-based; conditions: HEK-293 Kif5b-RET, 1 hour incubation, phospho-RET normalized to GAPDH; read-out: KIF5B-RET pTYR1062 Cell IC50
T2 construct: KIF5B (N-terminal portion incl. coiled-coil); expressed in transfected cells; host or cells: HEK-293; the other entry of the earlier key: KIF5B (P33176, Kinesin-1 heavy chain)
T2 sequence (P07949 713-1063 limits assumed): T1 sequence (P07949 713-1063 G810S limits assumed) with S98G
Procedure: as §1, with “a” for “a G810R or G810S mutant RET”, “PBS is” for “PBS was”, “values were” for “values are”

G810R mutant RET kinase = G810R mutant RET kinase (Homo sapiens, UniProt P07949, G810R); experiment: biochemical;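 also: HTRF KinEASE-TK enzymatic assay with 1 nM recombinant RET G810R, 1 h at 22 °C, dual-wavelength ratiometric readout, 100% control without compound, 0% from pre-quenched reactions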
Chain of G810R mutant RET kinase (P07949 29-1114 G810R): as the sequence (P07949 29-1114 G810S) above, with S782R counted along it

RET kinase Wild Type = RET kinase Wild Type (Homo sapiens, UniProt P07949); experiment: biochemical;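 also: HTRF kinase activity assay on RET enzyme, 1 h reaction at 22 °C, dual-wavelength readout as percent of control, DMSO-only wells as 100%, pre-quenched reactions as 0%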
Chain of RET kinase Wild Type (P07949 29-1114): as the sequence (P07949 29-1114 G810S) above, with S782G counted along it

[3] = biological target: T3, HEK-293 cells expressing a G810R mutant RET Kif5b-RET fusion protein (Homo sapiens, UniProt P07949, G810R); experiment: RET G810R Mutant Cell Assay (phospho-RET Tyr1062); type: cell-based; conditions: HEK-293 Kif5b-RET G810R, 1 hour incubation, phospho-RET normalized to GAPDH
T3 construct: KIF5B (N-terminal portion incl. coiled-coil); expressed in transfected cells; host or cells: HEK-293; the other entry of the earlier key: KIF5B (P33176, Kinesin-1 heavy chain)
T3 sequence (P07949 713-1063 G810R limits assumed): T1 sequence (P07949 713-1063 G810S limits assumed) with S98R
Procedure: as §1

RET kinase V804M = RET kinase V804M (Homo sapiens, UniProt P07949, V804M); experiment: RET Enzyme Assay (CisBio HTRF KinEASE-TK), V804M; type: biochemical; conditions: read-out: RET V804M Enz FRET IC50
Chain of RET kinase V804M (P07949 29-1114 V804M): as the sequence (P07949 29-1114 G810S) above, with V776M, S782G counted along it

| IC50 (G810S mutant RET kinase) [nM] | IC50 [1] [nM] | IC50 [2] [nM] | IC50 (G810R mutant RET kinase) [nM] | IC50 (RET kinase Wild Type) [nM] | IC50 [3] [nM] | IC50 (RET kinase V804M) [nM] | Structure (SMILES) |
| --- | --- | --- | --- | --- | --- | --- | --- |
| 5570 | 1000 | 1000 | 1910 | 1260 |  |  | CC(C)n1c2c(c3c(N)ncnc31)-c1cc3ccc(C(=O)Nc4cnn(C)c4)cc3n1CCC2 [Example 93, 1-amino-5-isopropyl-N-(1-methyl-1H-pyrazol-4-yl)-5,6,7,8-tetrahydropyrimido[5″,4″:4′,5′]pyrrolo[3′,2′: 3,4]azepino[1,2-a]indole-11-carboxamide] |
| 1600 | 408 | 222 | 1060 | 353 |  |  | CC(C)n1c2c(c3c(N)ncnc31)-c1cc3ccc(C(=O)Nc4ccccn4)cc3n1CCC2 [Example 90, 1-amino-5-isopropyl-N-(pyridin-2-yl)-5,6,7,8-tetrahydropyrimido[5″,4″:4′,5′]pyrrolo[3′,2′: 3,4]azepino[1,2-a]indole-11-carboxamide] |
| 123 |  | 91 | 95 | 41 | 302 | 227 | CC(C)n1c2c(c3c(N)ncnc31)-c1noc(C3CC3)c1C(=O)N(CCc1ccccc1)C2 [Example 8, 11-amino-3-cyclopropyl-7-isopropyl-5-phenethyl-6,7-dihydroisoxazolo[4,3-c]pyrimido[5′,4′:4,5]pyrrolo[3,2-e]azepin-4(5H)-one] |
| 300 |  | 155 | 180 | 93 | 2160 | 259 | CC(C)n1c2c(c3c(N)ncnc31)-c1noc(C3CC3)c1C=CC2 [Example 30, 3-cyclopropyl-7-isopropyl-6,7-dihydroisoxazolo[4″,3″:6′,7′]cyclohepta[1′,2′:4,5]pyrrolo[2,3-d]pyrimidin-11-amine] |
| 135 |  | 60 | 157 | 16 | 290 | 106 | CCCN1Cc2c(c3c(N)ncnc3n2C(C)C)-c2noc(C3CC3)c2C1=O [Example 4] |
| 87 |  | 40 | 70 | 25 | 181 | 92 | CC(C)n1c2c(c3c(N)ncnc31)-c1noc(C3CC3)c1C(=O)OC2 [Example 24, 11-amino-3-cyclopropyl-7-isopropyl-6,7-dihydro-4H-isoxazolo[3″,4″:5′,6′]oxepino[4′,3′:4,5]pyrrolo[2,3-d]pyrimidin-4-one] |
| 2480 | 16700 | 13900 | 2740 | 531 |  |  | CNC(=O)c1ccc2cc3n(c2c1)C(=O)NCc1c-3c2c(N)ncnc2n1C(C)C [Example 73, 1-Amino-5-isopropyl-N-methyl-8-oxo-5,6,7,8-tetrahydropyrimido[5″,4″:4′,5′]pyrrolo[2′,3′:5,6][1,3]diazepino[1,7-a]indole-11-carboxamide] |
| 94 |  | 64 | 102 | 16 | 485 | 34 | COC1CCc2c(c3c(N)ncnc3n2C(C)C)-c2noc(C3CC3)c21 (racemic) [Example 53, 3-cyclopropyl-7-isopropyl-4-methoxy-4,5,6,7-tetrahydroisoxazolo[4″,3″:6′,7′]cyclohepta[1′,2′:4,5]pyrrolo[2,3-d]pyrimidin-11-amine] |
| 75 |  | 65 | 102 | 31 | 496 | 323 | CC(C)n1c2c(c3c(N)ncnc31)-c1noc(C3CC3)c1S(=O)(=O)N(C)C2 [Example 22, 11-amino-3-cyclopropyl-7-isopropyl-5-methyl-6,7-dihydro-5H-isoxazolo[3,4-f]pyrimido[5′,4′:4,5]pyrrolo[2,3-d][1,2]thiazepine 4,4-dioxide] |
| 110 |  | 35 | 124 | 47 | 831 | 114 | CC(C)n1c2c(c3c(N)ncnc31)-c1noc(C3CC3)c1CN(S(C)(=O)=O)C2 [Example 35, 3-cyclopropyl-7-isopropyl-5-(methylsulfonyl)-4,5,6,7-tetrahydroisoxazolo[4,3-c]pyrimido[5′,4′:4,5]pyrrolo[3,2-e]azepin-11-amine 2,2,2-trifluoroacetate] |
| 117 |  | 17 | 145 | 52 | 179 | 202 | CCN1Cc2c(c3c(N)ncnc3n2C(C)C)-c2noc(C3CC3)c2C1=O [Example 1, 11-amino-3-cyclopropyl-5-ethyl-7-isopropyl-6,7-dihydroisoxazolo[4,3-c]pyrimido[5′,4′:4,5]pyrrolo[3,2-e]azepin-4(5H)-one] |
| 356 |  | 135 | 171 | 91 | 660 | 340 | CC(C)n1c2c(c3c(N)ncnc31)-c1noc(C3CC3)c1C(=O)N(Cc1ccccc1)C2 [Example 7, 11-amino-5-benzyl-3-cyclopropyl-7-isopropyl-6,7-dihydroisoxazolo[4,3-c]pyrimido[5′,4′:4,5]pyrrolo[3,2-e]azepin-4(5H)-one] |
